# Source: patent publication US11154529B2, “Phosphaplatin liquid formulations” (Phosplatin Therapeutics Inc., priority 2016, dated 2021)
# Assay: Ready-to-use formulation stability at 2-8° C., 5 mg/mL (R,R)-pyrodach-2 in 10 mM Potassium Phosphate Buffer at pH 7.2, 10 mL vials
# Assay type: physicochemical
# Protocol: A scalable and commercially viable process for the manufacture of a ready-to-use formulation of (R,R)-pyrodach-2 in 10 mM buffer adjusted to a pH of 7.0-7.5 comprises the steps of: a) preparing a 10 mM aqueous solution of buffer; b) adding sufficient hydroxide base to effect neutralization of the added (R,R)-pyrodach-2 to reach a pH of about 7; c) adding (R,R)-pyrodach-2 and allowing it to dissolve; d) if necessary adding additional hydroxide to adjust the pH into a range of about 7.0-7.5; and e) filtering the solution under sterile conditions, filling the solution into glass vials, and covering it with a stopper and/or a cap. Stability data on two large batches of 5 mg/mL (R,R)-pyrodach-2 in 10 mM potassium phosphate buffer were generated. One such batch at pH=7.2 was evaluated at both 25° C./60% RH and refrigerated (2-8° C.) conditions, with data summarized in Table 4 and Table 5, respectively. […] Similar observations have been made for the ready-to-use liquid formulation at pH7.4, as illustrated in Table 6 and Table 7.
# • Transfer 4564.6 mg±0.5 mg of potassium phosphate dibasic, trihydrate to a 2-L volumetric flask. • Fill flask to approximately 75% volume with water, swirl as needed to dissolve all solids. • Volumetrically transfer 32.0 mL of 1N KOH to flask. • Dilute flask to volume with water and mix well. • Record pH of final solution. This is the diluent. • Transfer 7653.1 mg±0.5 mg of (R,R)-pyrodach-2 to a compounding vessel. • Transfer 1500 mL of the diluent to the vessel and stir to dissolve solids. • Record pH of final solution. • Pass entire solution through a 0.22 μm sterile filter membrane into a sterile collection vessel. • Calculate (R,R)-pyrodach-2 solution concentration
# To a […] glass beaker equipped with mechanical mixer was add 24645.5 g of sterile water for injection. With agitation 47.03 gm of dibasic potassium phosphate USP was added and the solids allowed to dissolve. To the stirred solution was added 253.8 gm of 1.00 N potassium hydroxide. Sterile water for injection USP (900.0 gm) was used as a rinse to facilitate both additions. With vigorous agitation, (R,R)-pyrodach-2 (201.87 gm) was slowly added and agitation continued until all of the solids dissolved. Sterile water for injection USP (900.0 gm) was used as a rinse to facilitate the addition. The pH was determined to be 6.7. A total of 85 mL of 1.00 N potassium hydroxide was added in 5.0 mL aliquots to adjust the pH to 7.3. The solution was sterile filtered through 0.22μ Millipore Millipack filter and aseptically filled, 10 ml top a vial in 10 mL in 10 cc Wheaton clear molded vails, stoppered with a 20 mm stopper and crimp seal capped.
compound,measurement,setting,value
"O=P1(O)OP(=O)(O)[O][Pt]2([NH][C@@H]3CCCC[C@H]3[NH]2)[O]1 (stereo partly drawn) [(R,R)-pyrodach-2, (R,R)-trans-1,2-cyclohexanediamine-(dihydrogenpyrophosphato)platinum(II)]",(DACH) Pt-diaquo (~RRT 0.3),1 Month,0.17%
same,(DACH) Pt-monoaquo (~RRT 0.7),1 Month,0.84%
same,Assay (Potency),1 Month,97.7%
same,PT-112 Dimer (~RRT 4.0),1 Month,0.21%
same,RRT 0.56,1 Month,0.11%
same,Total Related Substances,1 Month,1%
same,pH,1 Month,7.2
same,(DACH) Pt-diaquo (~RRT 0.3),2 Month,0.09%
same,(DACH) Pt-monoaquo (~RRT 0.7),2 Month,0.91%
same,Assay (Potency),2 Month,100.1%
same,PT-112 Dimer (~RRT 4.0),2 Month,0.25%
same,RRT 0.56,2 Month,0.10%
same,RRT 0.68,2 Month,0.06%
same,Total Related Substances,2 Month,1%
same,pH,2 Month,7.2
same,(DACH) Pt-diaquo (~RRT 0.3),3 Month,0.18%
same,(DACH) Pt-monoaquo (~RRT 0.7),3 Month,0.82%
same,Assay (Potency),3 Month,98.2%
same,PT-112 Dimer (~RRT 4.0),3 Month,0.31%
same,RRT 0.56,3 Month,0.12%
same,RRT 0.68,3 Month,0.05%
same,RRT 3.1-3.2,3 Month,0.08%
same,Total Related Substances,3 Month,2%
same,pH,3 Month,7.2
same,(DACH) Pt-diaquo (~RRT 0.3),4 Month,0.13%
same,(DACH) Pt-monoaquo (~RRT 0.7),4 Month,0.88%
same,Assay (Potency),4 Month,98.6%
same,PT-112 Dimer (~RRT 4.0),4 Month,0.27%
same,RRT 0.50,4 Month,0.05%
same,RRT 0.56,4 Month,0.13%
same,RRT 3.1-3.2,4 Month,0.07%
same,Total Related Substances,4 Month,2%
same,pH,4 Month,7.3
same,(DACH) Pt-diaquo (~RRT 0.3),6 Month,0.18%
same,(DACH) Pt-monoaquo (~RRT 0.7),6 Month,0.91%
same,Assay (Potency),6 Month,98.4%
same,PT-112 Dimer (~RRT 4.0),6 Month,0.28%
same,RRT 0.56,6 Month,0.12%
same,RRT 0.68,6 Month,0.05%
same,RRT 3.1-3.2,6 Month,0.10%
same,Total Related Substances,6 Month,2%
same,pH,6 Month,7.3
same,Particulate Matter (Light Obscuration),"6 Month, first value",150 particles per container
same,Particulate Matter (Light Obscuration),"6 Month, second value",8 particles particles per container
same,(DACH) Pt-diaquo (~RRT 0.3),9 Month,0.14%
same,(DACH) Pt-monoaquo (~RRT 0.7),9 Month,1.05%
same,Assay (Potency),9 Month,97.8%
same,PT-112 Dimer (~RRT 4.0),9 Month,0.29%
same,RRT 0.56,9 Month,0.16%
same,RRT 0.68,9 Month,0.06%
same,RRT 3.1-3.2,9 Month,0.10%
same,Total Related Substances,9 Month,2%
same,pH,9 Month,7.2
same,(DACH) Pt-diaquo (~RRT 0.3),12 Month,0.20%
same,(DACH) Pt-monoaquo (~RRT 0.7),12 Month,1.02%
same,Assay (Potency),12 Month,97.8%
same,PT-112 Dimer (~RRT 4.0),12 Month,0.29%
same,RRT 0.50,12 Month,0.06%
same,RRT 0.56,12 Month,0.16%
same,RRT 0.68,12 Month,0.10%
same,RRT 3.1-3.2,12 Month,0.16%
same,Total Related Substances,12 Month,2%
same,pH,12 Month,7.2
same,Particulate Matter (Light Obscuration),"12 Month, first value",236 particles per container
same,Particulate Matter (Light Obscuration),"12 Month, second value",4 particles particles per container
same,(DACH) Pt-diaquo (~RRT 0.3),15 Month,0.15%
same,(DACH) Pt-monoaquo (~RRT 0.7),15 Month,0.92%
same,Assay (Potency),15 Month,98.7%
same,PT-112 Dimer (~RRT 4.0),15 Month,0.29%
same,RRT 0.50,15 Month,0.07%
same,RRT 0.56,15 Month,0.19%
same,RRT 0.68,15 Month,0.06%
same,RRT 3.1-3.2,15 Month,0.22%
same,Total Related Substances,15 Month,2%
same,pH,15 Month,7.2
same,(DACH) Pt-diaquo (~RRT 0.3),18 Month,0.15%
same,(DACH) Pt-monoaquo (~RRT 0.7),18 Month,0.93%
same,Assay (Potency),18 Month,100.3%
same,PT-112 Dimer (~RRT 4.0),18 Month,0.31%
same,RRT 0.50,18 Month,0.07%
same,RRT 0.56,18 Month,0.19%
same,RRT 0.68,18 Month,0.07%
same,RRT 3.1-3.2,18 Month,0.19%
same,RRT 3.54,18 Month,0.05%
same,Total Related Substances,18 Month,2%
same,pH,18 Month,7.3
same,(DACH) Pt-diaquo (~RRT 0.3),24 Month,0.17%
same,(DACH) Pt-monoaquo (~RRT 0.7),24 Month,0.82%
same,Assay (Potency),24 Month,97.1%
same,PT-112 Dimer (~RRT 4.0),24 Month,0.31%
same,RRT 0.46,24 Month,0.06%
same,RRT 0.50,24 Month,0.22%
same,RRT 0.56,24 Month,0.09%
same,RRT 0.68,24 Month,0.05%
same,RRT 3.1-3.2,24 Month,0.22%
same,RRT 3.54,24 Month,0.11%
same,Total Related Substances,24 Month,2%
same,pH,24 Month,7.2
same,Particulate Matter (Light Obscuration),"24 Month, first value",41 particles per container
same,Particulate Matter (Light Obscuration),"24 Month, second value",12 particles per container
same,(DACH) Pt-diaquo (~RRT 0.3),30 Month,0.14%
same,(DACH) Pt-monoaquo (~RRT 0.7),30 Month,0.96%
same,Assay (Potency),30 Month,98.2%
same,PT-112 Dimer (~RRT 4.0),30 Month,0.33%
same,RRT 0.50,30 Month,0.17%
same,RRT 0.56,30 Month,0.19%
same,RRT 0.68,30 Month,0.08%
same,RRT 3.1-3.2,30 Month,0.31%
same,RRT 3.54,30 Month,0.10%
same,Total Related Substances,30 Month,2%
same,pH,30 Month,7.2
same,Particulate Matter (Light Obscuration),"30 Month, first value",62 particles per container
same,Particulate Matter (Light Obscuration),"30 Month, second value",6 particles particles per container
same,(DACH) Pt-diaquo (~RRT 0.3),36 Month,0.12%
same,(DACH) Pt-monoaquo (~RRT 0.7),36 Month,1.16%
same,Assay (Potency),36 Month,97.8%
same,PT-112 Dimer (~RRT 4.0),36 Month,0.36%
same,RRT 0.46,36 Month,0.07%
same,RRT 0.50,36 Month,0.23%
same,RRT 0.56,36 Month,0.11%
same,RRT 0.68,36 Month,0.09%
same,RRT 3.1-3.2,36 Month,0.30%
same,RRT 3.54,36 Month,0.14%
same,Total Related Substances,36 Month,3%
same,pH,36 Month,7.2
same,(DACH) Pt-diaquo (~RRT 0.3),Initial,0.16%
same,(DACH) Pt-monoaquo (~RRT 0.7),Initial,0.98%
same,Assay (Potency),Initial,99.8%
same,PT-112 Dimer (~RRT 4.0),Initial,0.19%
same,RRT 0.56,Initial,0.13%
same,RRT 0.68,Initial,0.05%
same,Total Related Substances,Initial,2%
same,pH,Initial,7.2
same,Particulate Matter (Light Obscuration),"Initial, first value",219 particles per container
same,Particulate Matter (Light Obscuration),"Initial, second value",11 particles per container
